From patent US6413974B1, “6,9,-disubstituted 2-[trans-(4-aminocyclohexyl) amino] purines” (Aventis Pharmaceuticals Inc., priority 1998, dated 2002)
pIC50: −log10 of the molar value. “And” between values parts separate entries of the source, which are not always exact repeats. Equal entries are not always repeated. Structures can show the parent of a compound that is named as a salt. Where two headings read alike, the source gives them in different places.

Key:
cdk4/cyclin D1 = molecular target: T1, cdk4/cyclin D1 (Homo sapiens, UniProt P11802); experiment: Cyclin-dependent kinase 4 Assay; format: biochemical; conditions: cdk4/cyclin D1, GST-Rb substrate, 10 μM ATP, 30 min at 37° C.; read-out: CDK4 Inhibition IC50
T1 construct: made in house; host or cells: Sf9 insect cells (Bac-to-Bac baculovirus, pFastBac)
T1 sequence (P11802 whole entry): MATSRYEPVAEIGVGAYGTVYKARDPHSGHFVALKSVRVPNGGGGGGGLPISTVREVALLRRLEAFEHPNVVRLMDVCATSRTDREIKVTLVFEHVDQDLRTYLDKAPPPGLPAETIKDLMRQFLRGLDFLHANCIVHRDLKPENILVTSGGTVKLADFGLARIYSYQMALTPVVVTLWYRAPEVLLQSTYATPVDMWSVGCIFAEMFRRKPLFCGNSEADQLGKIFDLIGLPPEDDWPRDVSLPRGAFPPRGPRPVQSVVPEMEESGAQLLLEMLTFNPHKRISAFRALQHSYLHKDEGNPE
T1 sequence (P24385 whole entry partner): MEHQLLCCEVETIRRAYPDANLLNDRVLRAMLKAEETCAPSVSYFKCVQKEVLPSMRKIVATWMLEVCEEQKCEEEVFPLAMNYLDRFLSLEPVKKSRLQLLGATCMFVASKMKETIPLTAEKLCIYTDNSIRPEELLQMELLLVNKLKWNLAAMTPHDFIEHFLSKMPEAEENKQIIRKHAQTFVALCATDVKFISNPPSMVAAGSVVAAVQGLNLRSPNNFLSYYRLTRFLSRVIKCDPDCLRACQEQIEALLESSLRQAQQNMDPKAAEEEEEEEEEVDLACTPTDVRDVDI
Description: The IC50 values for cdk-4 inhibition were by the following method:
(§1) The transformed bacteria were grown overnight to saturation, then diluted in YT broth and incubated at 37° C. for 2 h. The protein was induced by incubation with 0.1 mM isopropylthioglycoside for 3 h. Following sedimentation by centrifugation, the cells were lysed by sonication in STE buffer ([…] NaCl, 10 mM Tris, pH 8.0, 1 mM EDTA) containing 10% sarkosyl. Particulate matter was removed by centrifugation and the lysate was incubated with glutathione-Sepharose at 4° C. The beads were washed with kinase buffer and then quantitation of Coomassie blue-stained proteins separated by SDS-PAGE was performed using a protein standard of known concentration.
The cDNA for human cyclin D1 was cloned by RT PCR using […] from MCF-7 cells. […] Bacmid DNA was used to transfect Sf9 insect cells to produce recombinant virus. Following plaque purification of the virus, the viral preparations were amplified until high titer stocks were acheived.
Lysates were prepared by lysis of Sf9 cells coinfected with cdk4 and cyclin D1 in 50 mM HEPES, pH 7.5, 10 mM MgCl2, 1 mM DTT, 0.1 mM phenylmethylsulfonyl fluoride, 5 μg/ml aprotinin, and 5 μg/ml leupeptin using a PARR bomb under 500 p.s.i nitrogen pressure for 5 min at 4° C. Insoluble material was sedimented at 10,000×g for 20 min at 4° C. Glycerol was added to the supernatant to 10% and stored at −80° C. in aliquots.
(§2) Pre-wet Millipore Multiscreen 96-well filter plates (0.65 μm Durapore filters) with 200 μl kinase buffer (50 mM HEPES, pH 7.5, 10 mM MgCl2, 1 mM EGTA). GST-Rb (0.5 μg) bound to glutathione-Sepharose beads is added in 50 μl per well and the solution removed by application of vacuum. […] Add 0.1 μg cdk4/cyclin D1 (insect cell lysate) to initiate assay. Incubate 30 min at 37° C. Terminate reaction by filtration on Millipore Vacuum Manifold. Wash four times with TNEN (20 mM Tris, pH 8.0, 100 mM Na Cl, 1 mM EDTA, 0.5% nonidet P-40). After drying the plates at room temperature, the filter plates were placed in adapter plates (Packard) and 40 μl of Microscint-O® (Packard) was added to each well. Top Seal A film was used to cover the plates before counting in a Top Count Scintillation Counter.

cdk2/cyclin E = molecular target: T2, cdk2/cyclin E (Homo sapiens, UniProt P24941); experiment: Cyclin-Dependent Kinase 2 Assay (cdk-2 inhibition); format: biochemical; conditions: GST-Rb substrate, 30 min at 30° C.
T2 construct: made in house; host or cells: insect cells (baculovirus co-infection)
Description: as §1, §2
GST-Rb as described above for cdk4/cyclin D1
Assay conditions for cdk2/cyclin E were identical to those for cdk4/cyclin D1 including the substrate. The concentration of recombinant cdk2/cyclin E in the assay was 0.1 μg per 100 μl assay. Incubation was for 30 min at 30° C.

Colo-205 = experiment: In vitro tumor cell proliferation, Colo-205; format: cell-based, human; conditions: read-out: In vitro Tumor Cell Proliferation (IC50, μM) Colon Colo-205
Description: (§3) The proliferation of tumor cells was measured using a sulforhodamine B assay as described in Skehan, P., et al., J. Natl. Cancer Inst. […] Tumor cells were harvested with trypsin-EDTA, cells that excluded trypan blue were counted, added to 96-well plates and incubated overnight at 37° C. Drug was added to the wells following dilution in culture medium. Three days later, the medium was removed and replenished with medium containing fresh drug and incubated an additional 4 days. The cells were then fixed with 0.1 ml 10% trichloroacetic acid for 60 min at 4° C. The plates were rinsed five times with tap water, air-dried and stained for 30 min with 0.4% sulforhodamine B in 1% acetic acid and air-dried.
(§4) Alternatively, the CyQUANT cell proliferation assay was used to quantify tumor cell proliferation. Tumor cells were harvested with trypsin-EDTA, cells that excluded trypan blue were counted, added to 96-well plates and incubated overnight at 37° C. Drug was added to the wells following dilution in culture medium. Three days later the medium was removed and the plates frozen at −80° C. for at least 30 minutes.

A549 = experiment: In vitro tumor cell proliferation, A549; format: cell-based, human; conditions: read-out: In vitro Tumor Cell Proliferation (IC50, μM) Lung A549
Description: as §3, §4

MDA-MB-435 = experiment: In vitro tumor cell proliferation, MDA-MB-435; format: cell-based, human; conditions: read-out: In vitro Tumor Cell Proliferation (IC50, μM) Breast MDA-MB-435
Description: as §3, §4

MDA-MB-231 = experiment: In vitro tumor cell proliferation, MDA-MB-231; format: cell-based, human; conditions: read-out: In vitro Tumor Cell Proliferation (IC50, μM) Breast MDA-MB-231
Description: as §3, §4

PC-3 = experiment: In vitro tumor cell proliferation, PC-3; format: cell-based, human; conditions: read-out: In vitro Tumor Cell Proliferation (IC50, μM) Prostate PC-3
Description: as §3, §4

DMS-114 = experiment: In vitro tumor cell proliferation, DMS-114; format: cell-based, human; conditions: read-out: In vitro Tumor Cell Proliferation (IC50, μM) Lung DMS-114
Description: as §3, §4

DU 145 = experiment: In vitro tumor cell proliferation, DU 145; format: cell-based, human; conditions: read-out: In vitro Tumor Cell Proliferation (IC50, μM) Prostate DUI45
Description: as §3, §4

HT-29 = experiment: In vitro tumor cell proliferation, HT-29; format: cell-based, human; conditions: read-out: In vitro Tumor Cell Proliferation (IC50, μM) Colon HT-29 (converted)
Description: as §3, §4
HT-29 is a human colon adenocarcinoma, moderately well-differentiated grade II (HTB 38);

[1] = Homo sapiens, COLO 205, values marked * (mark not explained)
[2] = values marked * (mark not explained), dihydrochloride
[3] = Homo sapiens, A549, values marked * (mark not explained)
[4] = Homo sapiens, MDA-MB-435, values marked * (mark not explained)
[5] = Homo sapiens, MDA-MB-231, values marked * (mark not explained)
[6] = Homo sapiens, PC-3, values marked * (mark not explained)
[7] = Homo sapiens, DMS-114, values marked * (mark not explained)
[8] = Homo sapiens, DU-145, values marked * (mark not explained)
[9] = Homo sapiens, HT-29, values marked * (mark not explained)

| Compound | pIC50 (cdk4/cyclin D1) | pIC50 (cdk2/cyclin E) | IC50 (Colo-205; [1]) [µM] | IC50 (Colo-205; [2]) [µM] | IC50 (A549; [3]) [µM] | IC50 (A549; [2]) [µM] | IC50 (MDA-MB-435; [4]) [µM] | IC50 (MDA-MB-231; [5]) [µM] | IC50 (PC-3; [6]) [µM] | IC50 (PC-3; [2]) [µM] | IC50 (DMS-114; [7]) [µM] | IC50 (DMS-114; [2]) [µM] | IC50 (DU 145; [8]) [µM] | IC50 (HT-29; [9]) [µM] | IC50 (MDA-MB-435; [2]) [µM] | IC50 (MDA-MB-231; [2]) [µM] | IC50 (DU 145; [2]) [µM] | IC50 (HT-29; [2]) [µM] |
| --- | --- | --- | --- | --- | --- | --- | --- | --- | --- | --- | --- | --- | --- | --- | --- | --- | --- | --- |
| CC(CCCC(C)(C)O)Nc1nc(N[C@H]2CC[C@H](N)CC2)nc2c1ncn2C1CCCC1 (relative stereo) [Example 54, 2-[Trans-(4-aminocyclohexyl)amino]-6-[(5-hydroxy-1,5-dimethylhexyl)amino]-9-cyclopentylpurine dihydrochloride] | 5.70 and 5.92 | 7.07 | 0.63 | 0.58 | 0.68 | 0.63 | 1.6 | 1 | 0.83 | 0.8 | 0.78 | 0.61 | 1.4 | 1 |  |  |  |  |
| N[C@H]1CC[C@H](Nc2nc(NCCc3cccnc3)c3ncn(C4CCCC4)c3n2)CC1 [Example 7, 2-[Trans-(4-aminocyclohexyl)amino]-6-[(3-pyridyl)-2-ethylamino]-9-cyclopentylpurine dihydrochloride] | 6.52 | 7.22 | 6.3 | 7.8 | 15 |  | 11 | 7.9 | 8 | 4.6 | 16 | 24 | 10 |  |  | 7 | 9 |  |
| N[C@H]1CC[C@H](Nc2nc(NCc3ccncc3)c3ncn(C4CCCC4)c3n2)CC1 [Example 8, 2-[Trans-(4-aminocyclohexyl)amino]-6-[(4-pyridyl)methylamino]-9-cyclopentylpurine dihydrochloride] | 6.15 and 6.10 | 6.96 | 4.6 | 4.1 | 7.7 | 5.9 | 10 | 5.3 | 4.6 | 5.4 | 9.9 | 7.4 | 5.8 | 7.6 |  | 8.1 | 6.5 | 11 |
| N[C@H]1CC[C@H](Nc2nc(NCc3nc4ccccc4[nH]3)c3ncn(C4CCCC4)c3n2)CC1 [Example 19, 2-[Trans-(4-aminocyclohexyl)amino]-6-[(2-benzimidazolyl)methylamino]-9-cyclopentylpurine dihydrochloride] | 7.30 and 7.00 | 6.46 | 1.3 | 1.4 |  |  | 2.7 | 1.9 | 1.2 | 1.5 | 2.7 | 2.9 | 6.4 | 2.7 | 2.3 | 1.7 | 6.1 | 2 |
| CCCCCNc1nc(N[C@H]2CC[C@H](N)CC2)nc2c1ncn2C1CCCC1 [Example 26, 2-[Trans-(4-aminocyclohexyl)amino]-6-(pentylamino)-9-cyclopentylpurine dihydrochloride] | 6.29 and 6.34 | 7.10 and 7.44 | 1.3 | 1.5 |  |  | 2.2 | 1.2 | 1 | 1.4 | 1.8 | 1 | 0.73 | 1.4 | 2.3 | 1.4 | 0.95 | 1.6 |

Further molecules by falling IC50 (Colo-205; [1]), results first:

| pIC50 (cdk4/cyclin D1) | pIC50 (cdk2/cyclin E) | IC50 (Colo-205; [1]) [µM] | IC50 (Colo-205; [2]) [µM] | IC50 (A549; [3]) [µM] | IC50 (A549; [2]) [µM] | IC50 (MDA-MB-435; [4]) [µM] | IC50 (MDA-MB-231; [5]) [µM] | IC50 (PC-3; [6]) [µM] | IC50 (PC-3; [2]) [µM] | IC50 (DMS-114; [7]) [µM] | IC50 (DMS-114; [2]) [µM] | IC50 (DU 145; [8]) [µM] | IC50 (HT-29; [9]) [µM] | IC50 (MDA-MB-435; [2]) [µM] | IC50 (MDA-MB-231; [2]) [µM] | IC50 (DU 145; [2]) [µM] | IC50 (HT-29; [2]) [µM] | Compound |
| --- | --- | --- | --- | --- | --- | --- | --- | --- | --- | --- | --- | --- | --- | --- | --- | --- | --- | --- |
| 6.54 and 7.03 and 7.12 | 7.89 and 7.59 | 5.1 | 5 | 12 | 9.3 | 12 | 6.7 | 3.4 | 5.9 | 16 | 17 | 7.5 |  | 11 | 8.5 | 11 |  | N[C@H]1CC[C@H](Nc2nc(NCCCO)c3ncn(C4CCCC4)c3n2)CC1 [Example 53, 2-[Trans-(4-aminocyclohexyl)amino]-6-[(3-hydroxypropyl)amino]-9-cyclopentylpurine dihydrochloride] |
| 6.07 | 6.94 | 3.5 | 6.3 | 2.8 | 2.5 | 3.8 | 2.2 | 2.7 | 4.4 |  |  | 4.9 | 2.5 | 3.1 | 3.5 | 3.6 | 3.4 | NCCCCCCCCNc1nc(N[C@H]2CC[C@H](N)CC2)nc2c1ncn2C1CCCC1 [Example 56, 2-[Trans-(4-amninocyclohexyl)amino]-6-[(8-aminooctyl)amino]-9-cyclopentylpurine dihydrochloride] |
| 6.54 and 6.42 | 7.38 | 2.4 | 1.6 | 1.6 | 1.1 | 5.7 | 2.9 | 5.7 | 7.2 | 3.1 | 2.8 | 2.4 |  | 4.4 | 3.2 | 2.8 |  | NCCCCNc1nc(N[C@H]2CC[C@H](N)CC2)nc2c1ncn2C1CCCC1 [Example 5, 2-[Trans-(4-aminocyclohexyl)amino]-6-[(4-aminobutyl)amino]-9-cyclopentylpurine dihydrochloride] |
